According to the kinase profiling compilation of Christmann-Franck et al. (2016):

What was measured:
Assay in all cases: KINOMEscan competition binding
Conditions in all cases: compound 10.0 µM
[1] = biological target: RIOK2 (human) (UniProt Q9BVS4)
[2] = biological target: NLK (human) (UniProt Q9UBE8)
[3] = biological target: MAP3K9 (human) (UniProt P80192)
[4] = biological target: ERBB4 (human) (UniProt Q15303)
[5] = biological target: JAK3 JH1 catalytic (human) (UniProt P52333)
[6] = biological target: ACVR1B (human) (UniProt P36896)
[7] = biological target: FLT3 (human) (UniProt P36888)
[8] = biological target: CDK7 (human) (UniProt P50613)
[9] = biological target: CHEK1 (human) (UniProt O14757)
Sequence of CHEK1 (human) (O14757 whole entry, looked up): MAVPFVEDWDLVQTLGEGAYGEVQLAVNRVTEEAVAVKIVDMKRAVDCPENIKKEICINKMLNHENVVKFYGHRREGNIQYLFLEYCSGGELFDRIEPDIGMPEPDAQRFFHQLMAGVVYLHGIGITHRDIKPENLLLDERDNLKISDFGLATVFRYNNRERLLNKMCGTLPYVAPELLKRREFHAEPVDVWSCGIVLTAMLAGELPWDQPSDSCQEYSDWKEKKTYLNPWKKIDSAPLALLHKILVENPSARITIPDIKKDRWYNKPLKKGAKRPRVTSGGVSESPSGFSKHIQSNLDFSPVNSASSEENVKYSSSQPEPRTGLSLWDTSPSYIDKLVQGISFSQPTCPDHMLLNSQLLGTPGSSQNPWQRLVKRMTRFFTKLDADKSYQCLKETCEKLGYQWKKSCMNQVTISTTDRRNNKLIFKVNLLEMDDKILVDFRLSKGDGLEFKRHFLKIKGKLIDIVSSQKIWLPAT

Sequence of RIOK2 (human) (Q9BVS4 whole entry, looked up): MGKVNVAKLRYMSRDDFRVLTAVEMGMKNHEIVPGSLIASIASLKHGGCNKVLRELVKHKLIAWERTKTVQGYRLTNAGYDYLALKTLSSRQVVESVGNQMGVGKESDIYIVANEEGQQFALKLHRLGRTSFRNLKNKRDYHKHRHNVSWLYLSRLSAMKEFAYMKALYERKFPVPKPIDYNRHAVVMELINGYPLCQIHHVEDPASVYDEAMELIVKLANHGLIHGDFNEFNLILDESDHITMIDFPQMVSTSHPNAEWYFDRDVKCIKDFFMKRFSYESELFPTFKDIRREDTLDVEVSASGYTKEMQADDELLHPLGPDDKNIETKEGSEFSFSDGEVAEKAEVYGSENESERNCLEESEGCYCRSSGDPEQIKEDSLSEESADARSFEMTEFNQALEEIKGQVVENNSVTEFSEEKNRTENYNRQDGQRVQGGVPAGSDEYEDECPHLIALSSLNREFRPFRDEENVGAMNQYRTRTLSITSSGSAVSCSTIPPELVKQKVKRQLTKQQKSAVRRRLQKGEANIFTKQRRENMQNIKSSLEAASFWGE
Sequence of FLT3 (human) (P36888 whole entry, looked up): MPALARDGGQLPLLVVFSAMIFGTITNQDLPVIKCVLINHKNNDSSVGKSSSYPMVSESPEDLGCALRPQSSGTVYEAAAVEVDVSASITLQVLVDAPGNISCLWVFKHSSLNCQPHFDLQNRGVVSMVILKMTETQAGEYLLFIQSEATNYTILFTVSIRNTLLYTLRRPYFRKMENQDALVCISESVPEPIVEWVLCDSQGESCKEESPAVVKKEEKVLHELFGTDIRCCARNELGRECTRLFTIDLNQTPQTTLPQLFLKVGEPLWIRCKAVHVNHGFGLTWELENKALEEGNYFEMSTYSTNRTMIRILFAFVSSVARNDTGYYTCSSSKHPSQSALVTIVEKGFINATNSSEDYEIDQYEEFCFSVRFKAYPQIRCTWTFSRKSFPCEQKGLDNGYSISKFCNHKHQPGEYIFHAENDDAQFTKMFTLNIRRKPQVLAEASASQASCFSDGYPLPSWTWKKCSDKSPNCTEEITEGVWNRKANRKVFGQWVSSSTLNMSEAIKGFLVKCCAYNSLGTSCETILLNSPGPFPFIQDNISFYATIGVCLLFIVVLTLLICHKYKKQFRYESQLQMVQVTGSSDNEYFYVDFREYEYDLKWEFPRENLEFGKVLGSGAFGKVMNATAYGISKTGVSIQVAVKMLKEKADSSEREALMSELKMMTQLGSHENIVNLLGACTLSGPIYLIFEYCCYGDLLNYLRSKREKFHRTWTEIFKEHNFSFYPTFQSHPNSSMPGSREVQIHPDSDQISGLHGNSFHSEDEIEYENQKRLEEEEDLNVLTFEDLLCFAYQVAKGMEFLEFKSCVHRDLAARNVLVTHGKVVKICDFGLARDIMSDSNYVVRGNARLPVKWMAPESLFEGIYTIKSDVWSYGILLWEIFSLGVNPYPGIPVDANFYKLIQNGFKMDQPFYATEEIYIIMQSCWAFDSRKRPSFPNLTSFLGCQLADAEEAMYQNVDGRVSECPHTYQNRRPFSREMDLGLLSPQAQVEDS
Sequence of ACVR1B (human) (P36896 whole entry, looked up): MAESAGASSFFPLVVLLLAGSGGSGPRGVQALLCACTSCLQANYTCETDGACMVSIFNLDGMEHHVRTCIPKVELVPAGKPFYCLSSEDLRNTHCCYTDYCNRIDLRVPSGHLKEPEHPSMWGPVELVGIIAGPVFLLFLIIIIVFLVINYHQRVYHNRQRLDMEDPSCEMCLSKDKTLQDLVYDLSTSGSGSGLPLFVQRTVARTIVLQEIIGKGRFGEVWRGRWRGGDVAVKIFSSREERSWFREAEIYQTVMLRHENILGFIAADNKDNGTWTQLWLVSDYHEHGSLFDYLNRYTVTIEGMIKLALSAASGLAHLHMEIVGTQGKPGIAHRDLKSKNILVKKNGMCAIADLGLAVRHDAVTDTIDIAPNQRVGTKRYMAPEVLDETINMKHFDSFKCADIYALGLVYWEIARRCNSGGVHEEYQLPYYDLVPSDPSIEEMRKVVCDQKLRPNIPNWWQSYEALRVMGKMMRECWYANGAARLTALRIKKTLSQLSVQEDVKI
Sequence of ERBB4 (human) (Q15303 whole entry, looked up): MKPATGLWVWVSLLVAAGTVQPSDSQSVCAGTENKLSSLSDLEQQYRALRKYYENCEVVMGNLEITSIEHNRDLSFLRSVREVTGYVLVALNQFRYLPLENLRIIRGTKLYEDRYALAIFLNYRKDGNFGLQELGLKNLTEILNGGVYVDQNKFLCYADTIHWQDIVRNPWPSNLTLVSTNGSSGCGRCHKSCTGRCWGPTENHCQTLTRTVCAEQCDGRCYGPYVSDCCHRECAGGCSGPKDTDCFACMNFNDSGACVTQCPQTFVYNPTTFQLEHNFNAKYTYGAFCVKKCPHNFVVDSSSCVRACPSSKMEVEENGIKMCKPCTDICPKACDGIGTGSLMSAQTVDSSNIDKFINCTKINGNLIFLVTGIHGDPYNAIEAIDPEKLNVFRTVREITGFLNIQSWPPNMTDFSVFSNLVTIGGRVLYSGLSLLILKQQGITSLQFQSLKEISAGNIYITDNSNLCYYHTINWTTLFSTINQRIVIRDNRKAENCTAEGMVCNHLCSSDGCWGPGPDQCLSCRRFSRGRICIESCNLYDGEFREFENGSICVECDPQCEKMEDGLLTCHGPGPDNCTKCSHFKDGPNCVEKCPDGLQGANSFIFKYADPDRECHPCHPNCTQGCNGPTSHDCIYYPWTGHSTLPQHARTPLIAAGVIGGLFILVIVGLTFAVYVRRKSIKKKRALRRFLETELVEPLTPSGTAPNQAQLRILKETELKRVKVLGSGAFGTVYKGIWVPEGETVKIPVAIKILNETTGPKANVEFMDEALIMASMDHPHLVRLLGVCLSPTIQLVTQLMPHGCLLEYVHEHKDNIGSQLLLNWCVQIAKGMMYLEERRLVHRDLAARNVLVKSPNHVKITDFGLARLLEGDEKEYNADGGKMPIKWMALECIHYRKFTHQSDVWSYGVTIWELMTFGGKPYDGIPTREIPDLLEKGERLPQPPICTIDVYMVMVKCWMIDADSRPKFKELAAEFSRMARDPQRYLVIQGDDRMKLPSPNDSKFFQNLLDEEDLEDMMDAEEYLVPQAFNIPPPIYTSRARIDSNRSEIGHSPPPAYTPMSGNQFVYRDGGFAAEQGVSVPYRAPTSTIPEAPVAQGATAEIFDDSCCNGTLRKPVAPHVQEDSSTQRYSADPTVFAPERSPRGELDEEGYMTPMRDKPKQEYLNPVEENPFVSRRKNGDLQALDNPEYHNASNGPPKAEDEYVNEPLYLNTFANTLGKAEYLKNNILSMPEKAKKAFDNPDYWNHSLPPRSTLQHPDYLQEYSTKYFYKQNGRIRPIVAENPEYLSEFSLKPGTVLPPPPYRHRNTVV
Sequence of MAP3K9 (human) (P80192 whole entry, looked up): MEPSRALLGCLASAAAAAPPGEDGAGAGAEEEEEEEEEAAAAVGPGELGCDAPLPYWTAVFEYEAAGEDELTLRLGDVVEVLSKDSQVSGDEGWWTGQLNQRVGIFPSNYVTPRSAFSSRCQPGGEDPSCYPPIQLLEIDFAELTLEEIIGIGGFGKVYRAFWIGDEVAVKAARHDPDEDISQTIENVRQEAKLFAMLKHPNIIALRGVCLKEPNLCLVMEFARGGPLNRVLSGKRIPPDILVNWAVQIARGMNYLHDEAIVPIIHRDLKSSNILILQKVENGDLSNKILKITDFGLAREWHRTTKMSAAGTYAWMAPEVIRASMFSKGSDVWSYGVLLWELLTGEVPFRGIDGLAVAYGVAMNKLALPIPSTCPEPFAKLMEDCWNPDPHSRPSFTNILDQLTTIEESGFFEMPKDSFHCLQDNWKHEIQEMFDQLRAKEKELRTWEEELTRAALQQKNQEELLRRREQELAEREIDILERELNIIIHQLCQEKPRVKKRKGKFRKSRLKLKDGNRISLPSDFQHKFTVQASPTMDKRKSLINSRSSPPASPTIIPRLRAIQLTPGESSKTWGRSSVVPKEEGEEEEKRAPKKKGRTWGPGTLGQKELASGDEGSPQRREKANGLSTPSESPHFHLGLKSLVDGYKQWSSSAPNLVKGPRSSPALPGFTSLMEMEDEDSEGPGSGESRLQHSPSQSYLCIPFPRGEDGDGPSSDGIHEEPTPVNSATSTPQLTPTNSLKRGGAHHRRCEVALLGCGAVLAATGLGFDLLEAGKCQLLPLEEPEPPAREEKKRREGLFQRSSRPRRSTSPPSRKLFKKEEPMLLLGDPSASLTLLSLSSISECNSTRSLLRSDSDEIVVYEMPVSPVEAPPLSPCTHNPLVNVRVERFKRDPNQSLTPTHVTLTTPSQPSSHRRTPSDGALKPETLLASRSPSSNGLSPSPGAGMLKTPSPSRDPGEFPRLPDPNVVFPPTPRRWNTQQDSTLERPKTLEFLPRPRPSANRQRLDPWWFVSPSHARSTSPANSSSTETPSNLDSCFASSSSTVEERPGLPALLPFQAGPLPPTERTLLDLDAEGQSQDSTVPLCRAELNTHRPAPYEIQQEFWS

kinase still bound, per cent of control [1]: 100% | kinase still bound, per cent of control [2]: 44% | kinase still bound, per cent of control [3]: 100% | kinase still bound, per cent of control [4]: 94% | kinase still bound, per cent of control [5]: 75% | kinase still bound, per cent of control [6]: 100% | kinase still bound, per cent of control [7]: 0% | kinase still bound, per cent of control [8]: 11% | kinase still bound, per cent of control [9]: 100%
Compound: O=C(Nc1ccc(Oc2ncnc3[nH]ncc23)cc1)Nc1ccc(Cl)c(C(F)(F)F)c1
